Reference: publication PMC9841585 (ACS Medicinal Chemistry Letters, 2022)

Test system: CHO cells
Assay: Biotium XTT cell viability kit
Assay type: cell-based, Chinese hamster
Conditions: 24 hours, medium with 5% serum

Cc1nc(N2CCN(C(=O)c3ccco3)CC2)c2c3c(sc2n1)CC(C)(C)CC3 [Compound 24] was tested, and the “cytotoxicity (no cytotoxicity up to)” value was > 10 µM.
